Data on two compounds can be found in patent publication US8512971B2, “Compounds and methods of use thereof for assaying lysophospholipase D activity” (Echelon Biosciences, Inc., priority 2002, dated 2013).

In assay [1] the target is T1, purified lysoPLD from human serum (Homo sapiens, UniProt Q13822).
T1 construct: The purified lysoPLD from human serum; host or cells: human serum (purified; values quoted from Tokumura et al., J. Biol. Chem. 277:39436-42, 2002)
The note with it: cited from earlier work.

For a further assay, the target named is lysoPLD (Bos taurus, UniProt A1A4K5). The settings on record: 25° C. As for the experimental part:
FIG. 9 illustrates the evaluation of the fluorogenic substrate FS-1 using fetal bovine serum which is known to be a rich source of LPA that is “self-regenerating” through the in situ activity of lysoPLD. (Umezu-Goto, et al., Journal of Cell Biology, 158:227-33. (2002)) A 10 mM stock solution of FS-1 in MeOH was added to 50 μL solutions of 1% or 10% FBS in PBS and incubated at 25° C. overnight. Measurements were taken on a Hewlett Packard Fusion instrument at 1, 3, 5, and 18 hours.

Regarding `CCCCCCCCCCCCCCCC(=O)OC[C@@H](O)COP(=O)([O-])OCC[N+](C)(C)C` [16:0 LPC], in assay [1], the Km was 260 µM and the Vmax was 103 nmol/min.

Regarding “DABCYL-aminoethyl (N-BODIPY-FL®-aminocaproyl)-2-tert-buiylglycerylphosphate [FS-1]”, at lysoPLD (1% or 10% FBS in PBS, read at 1, 3, 5 and 18 hours, unoptimized assay), the “fluorescence change on cleavage of the quenched substrate” value is “increase in fluorescence with time”. The “substrate concentration of optimal conversion” value on lysoPLD (FBS in PBS) worked out at 100 µM.
